# In publication PMC12097015, “Development of MDM2‐Targeting PROTAC for Advancing Bone Regeneration” (Advanced Science, 2025):
# Assays:
# RUNX2, OCN, OPN = assay: qPCR of osteogenic differentiation marker genes in hBMSCs; type: cell-based, human
# Description: Total RNA was extracted from hBMSCs treated with Nutlin‐3 or CL144, as well as from control cells, using Trizol (Invitrogen, 15596026), according to the manufacturer's instructions. cDNA was synthesized using TOPscript RT DryMIX (Enzynomics, RT200). Human gene‐specific primer sequences were used. (Used primer sequences see Table S2, Supporting Information). qPCR was conducted using the SYBR Green qPCR Master Mix (Applied biosystems, 4 309 155). Relative gene expression levels were calculated using the ΔΔCt method with GAPDH as the internal control for normalization.
# [1] = test system: OVX-induced osteoporosis model; assay: Ovariectomy (OVX)-induced osteoporosis mouse model; type: in vivo, C57BL6 mice; conditions: OVX mice
# Description: -Establishment of Ovariectomized Mice Model: The experimental protocols were approved by the IACUC (Approval code: IACUC230118) at the CHA Laboratory Animal Research Center. The mice were handled in compliance with the Guidelines for the Care and Use of Animals at the institution. Female C57BL6 mice (seven weeks old (n = 57)) were randomly divided into six groups (n = 8-10): […] All surgeries and pump implantations were performed under aseptic conditions. Mice were anesthetized before removing both sides of the ovaries. In the fourth week following surgery, an Alzet osmotic pump (Durect Corp, #1004) was implanted in the mice. […] Images were acquired at an effective pixel size of 50 μm (130 kV and 60 μA radiation source; 1.0 mm aluminum filter). Subsequently, 3D images were reconstructed from the 2D X-ray projections by implementing the Feldkamp algorithm, and appropriate image corrections, including ring artifact correction, beam hardening correction, and fine-tuning, were processed using NRecon software (SkyScan 1173, Belgium). The dynamic image range (contrast limits) was determined at 0-0.3 in units of attenuation coefficient and was applied to all datasets for optimum image contrast. After acquisition and reconstruction of the datasets, images were first reoriented on each 3D plane using DataViewer software (SkyScan 1173, Belgium) to align the long axis of the femur parallel to the coronal and sagittal planes. Next, 3D morphometric analyses of the distal femur and body of the lumbar vertebrae were performed using CT-Analyzer software (SkyScan 1173, Belgium). Regarding the region of interest (ROI), this work analyzed the 1.5 mm […] trabecular bone of the distal femur metaphysis, excluding the growth plate. The ROIs were delineated using a freehand drawing tool while maintaining a […] clearance from the endosteal surface. […] A global threshold of 60 (1.01573 g cm^-3) was applied to all scans to extract a physiologically accurate representation of the trabecular bone phase. […] All quantitative and structural parameters followed the nomenclature and units recommended by the American Society for Bone and Mineral Research (ASBMR) Histomorphometry Nomenclature Committee. After data quantification,^[ [26b] ^] 3D rendered images were generated to visualize the analyzed regions using the marching cube method. -H&E staining: Following decalcification, the specimens were fixed in paraffin and longitudinally sliced to a thickness of 3 μm using a microtome. Subsequently, each sample was affixed to a slide and exposed to a temperature of 55 °C. […] The slides underwent a 1 min wash in flowing purified water and immersed in Harris hematoxylin-I for 5 min, followed by a 1 min wash under flowing tap water. Sections were briefly immersed in ammonia water for 30 s and washed with tap water for 3 min. Subsequently, the sections were stained with Eosin Y for 2 min and 30 s, followed by gradual drying in 95%-100% ethanol. Any residual stain was rinsed with distilled water and each section was mounted. -Masson's trichrome staining: Following deparaffinization and hydration, the sections underwent treatment with a mordant containing a 5% iron alum solution in a dry oven at 56 °C for 30 min. Sections were washed under running tap water for 5-6 min to remove picric acid. Sections were stained with Weigert's iron hematoxylin solution for 10 min, followed by rinsing with purified water. A 5 min staining with Biebrich scarlet-acid fuchsin solution ensued, succeeded by washing with purified water. The sections were immersed in a phosphomolybdic-phosphotungstic acid solution for 5 min. After discarding the solution, the sections were washed with distilled water. Differentiation was performed in 1% glacial acetic acid solution for 3 min. The solution was discarded, and the remaining stain was washed with distilled water.
# MDM2 = MDM2 (Homo sapiens, UniProt Q00987); assay: Immunoprecipitation of MDM2 ubiquitination in HeLa cells overexpressing MDM2 and HA-tagged ubiquitin; type: cell-based; design: host or cells: HeLa; conditions: 10 µM, within 60 min
# Description: HeLa cells were cultured in DMEM (Welgene, LM001‐05) supplemented with 10% FBS (Welgene, S001‐07). For transient transfection, the cells were seeded at ≈70% confluence. The following day, transfection was performed using Lipofectamine 3000 (Invitrogen, L3000015) for 24 h according to the manufacturer's protocol. The cells were transfected with 100 ng of EGFP‐MDM2 per well in the 96‐well plate and were transfected with 2 µg of MDM2 WT and 2 µg of HA‐ubiquitin, total 4 µg per well in the 6‐well plate.
# Hela cells (passage. 5) 7 × 10^5 cells well^−1 were seeded in a 6‐well plate and allowed to adhere overnight (o/n). The next day, WT MDM2 and HA‐ubiquitin plasmid transfection was performed using Lipofectamine 3000 for 24 h, according to the manufacturer's instructions. After transfection for 24 h, cells were treated with CL144 for different time intervals, including 15, 30, and 60 min. After drug treatment, the cells were lysed using immunoprecipitation (IP) lysis buffer (ThermoFisher, 87788) supplemented with a protease inhibitor cocktail (PIC). The cell lysates were harvested for subsequent experiments. The cell lysate was incubated with a HA‐tag primary antibody (1′Ab) at 4 °C overnight to capture the target protein complexes. The next day, the antibody–protein complexes were bound to the beads for 1 h. The beads were washed three times with IP lysis buffer to remove nonspecific binding. […]
# [2] = 0.5 mg kg^−1, osmotic pump 28 days
# [3] = 0.5 mg kg^−1, same concentration of Nutlin‐3
# MDM2, sequence (Q00987 whole entry): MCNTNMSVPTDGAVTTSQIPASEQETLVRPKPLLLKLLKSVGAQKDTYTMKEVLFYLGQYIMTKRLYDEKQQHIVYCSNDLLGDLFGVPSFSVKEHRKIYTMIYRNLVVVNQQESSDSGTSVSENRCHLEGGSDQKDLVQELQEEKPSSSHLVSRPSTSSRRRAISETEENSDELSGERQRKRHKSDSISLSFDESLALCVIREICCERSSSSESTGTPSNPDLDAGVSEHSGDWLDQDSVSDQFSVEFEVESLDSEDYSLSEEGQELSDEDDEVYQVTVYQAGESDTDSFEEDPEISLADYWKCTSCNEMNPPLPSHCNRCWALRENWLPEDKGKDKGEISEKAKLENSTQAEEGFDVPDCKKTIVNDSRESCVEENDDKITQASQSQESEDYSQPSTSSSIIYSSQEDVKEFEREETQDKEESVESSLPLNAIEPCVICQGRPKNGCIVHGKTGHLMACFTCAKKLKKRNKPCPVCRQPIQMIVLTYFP
smiles,measurement,setting,value
COc1ccc(C2=N[C@H](c3ccc(Cl)cc3)[C@H](c3ccc(Cl)cc3)N2C(=O)N2CCN(CC(=O)NCCCCCCCCOc3cccc4c3C(=O)N(C3CCC(=O)NC3=O)C4=O)C(=O)C2)c(OC(C)C)c1 (stereo in doubt) [CL144],OPN mRNA level,"RUNX2, OCN, OPN; 10 μΜ",increased
same,expression levels of RUNX2 and OCN (mRNA) compared to Nutlin‐3,"RUNX2, OCN, OPN; same concentrations",significantly increased
same,regenerative effect compared with alendronate,[1]; 0.5 mg kg^−1,results comparable to those of the alendronate‐treated group
same,recovery in BV/TV compared to the OVX group,[1]; [2],65%
same,recovery in Tb.N compared to the OVX group,[1]; [2],58%
same,improvement in BV/TV compared to the Nutlin‐3 group,[1]; [3],56%
same,improvement in Tb.N compared to the Nutlin‐3 group,[1]; [3],61%
same,recovery in BMD compared to the OVX group,"[1]; 1 mg kg^−1, osmotic pump 28 days",12%
same,improvement in BMD compared to the Nutlin‐3 group,"[1]; 1 mg kg^−1, same concentration of Nutlin‐3",13%
same,bone histology (H&E staining) versus OVX group,[1]; tibia and femur tissues,newly formed trabecular structures were observed
same,increase of ubiquitination level of MDM2,MDM2,2.65 fold
